Laboratory results reported in patent US6287794A, “Factor Vlla inhibitors” (Aventis Pharma Deutschland GmbH, priority 1998, dated 2001).
pKi: −log10 of the molar value. Non-standard residues stand in square brackets, D forms with d. Residues, ends and D or L forms follow the SMILES beside them. *: point of attachment. Phe(4-amidino) = N=C(N)c1ccc(C[C@H](N)C(=O)O)cc1; Arg(NO2) = N=C(NCCC[C@H](N)C(=O)O)N[N+](=O)[O-]; Abu(4-CN) = N#CCC[C@H](N)C(=O)O; Cha = N[C@@H](CC1CCCCC1)C(=O)O; Ala(CN) = N#CC[C@H](N)C(=O)O; Chg = N[C@H](C(=O)O)C1CCCCC1; Alloc = C=CCOC(=O)*; Bn = c1ccc(C*)cc1; Acm = CC(=O)NC*

Target: T1, human factor VIIa and TF (Homo sapiens, UniProt P08709)
T1 construct: human factor VIIa and TF
T1 sequence (P08709 213-466 limits assumed): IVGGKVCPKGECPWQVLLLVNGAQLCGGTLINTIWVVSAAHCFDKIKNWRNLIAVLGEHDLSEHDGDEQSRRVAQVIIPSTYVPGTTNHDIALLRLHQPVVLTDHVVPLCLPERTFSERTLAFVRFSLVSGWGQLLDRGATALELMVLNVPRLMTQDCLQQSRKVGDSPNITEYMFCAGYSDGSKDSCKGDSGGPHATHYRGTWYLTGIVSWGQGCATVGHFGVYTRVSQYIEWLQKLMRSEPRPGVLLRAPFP
T1 sequence (P08709 61-212 limits assumed): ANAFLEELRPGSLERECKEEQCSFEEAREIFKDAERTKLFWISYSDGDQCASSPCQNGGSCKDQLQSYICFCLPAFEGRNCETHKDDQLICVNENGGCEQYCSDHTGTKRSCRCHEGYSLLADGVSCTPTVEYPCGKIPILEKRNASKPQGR
T1 sequence (P13726 33-295 partner): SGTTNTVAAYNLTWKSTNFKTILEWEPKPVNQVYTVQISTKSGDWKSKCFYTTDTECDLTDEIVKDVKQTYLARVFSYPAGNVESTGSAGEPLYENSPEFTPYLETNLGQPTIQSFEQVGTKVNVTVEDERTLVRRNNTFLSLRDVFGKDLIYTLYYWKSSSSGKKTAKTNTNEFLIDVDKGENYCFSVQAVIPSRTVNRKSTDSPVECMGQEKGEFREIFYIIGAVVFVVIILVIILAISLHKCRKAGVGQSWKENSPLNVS
Test: Determination of Ki for FVIIa inhibition (chromogenic assay, substrate S-2288)
Type: biochemical
Conditions: human factor VIIa 5 nM and TF 10 nM, S-2288 500 μM, 25° C., 15 minute preincubation, pH 8.15; read-out: Factor VIIa inhibitory activities Ki
Protocol: The inhibitory activity (Ki) of each compound towards […] activity was determined using a chromogenic assay essentially as described previously. J. A. Ostrem, F. Al-Obeidi, P. Safar, A. Safarova, S. K. Stringer, M. Patek, M. T. Cross, J. Spoonamore, J. C. LoCascio, P. Kasireddy, D. S. Thorpe, N. Sepetov, M. Lebi, P. Wildgoose, P. Strop, "Discovery of a novel, potent, and specific family of factor Xa inhibitors via combinatorial chemistry". Biochemistry 37 (1998) 1053-1059. Kinetic assays were conducted at 25° C. in half-area microtiter plates (Costar Corp., Cambridge, Mass.) using a kinetic plate reader (Molecular Devices Spectramax 250). A typical assay consisted of 25 μl of human factor VIIa and TF (5 nM and 10 nM, respective final concentration) combined with 40 μl of inhibitor dilutions in 10% DMSO/TBS-PEG buffer (50 mM Tris, 15 mM NaCl, 5 mM CaCl2; 0.05% PEG 8k, pH 8.15). Following a 15 minute preincubation period, the assay was initiated by the addition of 35 μl of the chromogenic substrate S-2288 (D-Ile-Pro-Arg-pNA, Pharmacia Hepar Inc, 500 μM final concentration.). The apparent inhibition constants were calculated from the slope of the progress curves during the linear part of the time course, typically between 1 and 5 min following addition of substrate to the assay. The true Ki was subsequently determined for each compound by correcting for substrate concentration (S) and the Km using the formula Ki=Ki app/(1+(S)/Km). I. H. Segal, Enzyme Kinetics, pp 100-125 (John Wiley & Sons, N.Y., 1975).

Structure (SMILES)	pKi
C=CCOC(=O)N[C@@H](Cc1ccc(C(=N)N)cc1)C(=O)N[C@@H](CCC(=O)O)C(=O)N[C@@H](CCCNC(=N)N[N+](=O)[O-])C(=O)N[C@@H](CC1CCCCC1)C(N)=O [Alloc--pAph--Glu--Arg(NO2)--Cha--NH2] (Alloc-[Phe(4-amidino)]E[Arg(NO2)][Cha]-NH2)	7.85
C=CCOC(=O)N[C@@H](Cc1ccc(C(=N)N)cc1)C(=O)N[C@@H](CCC(=O)O)C(=O)N[C@@H](CCCNC(=N)N)C(=O)N[C@@H](CC1CCCCC1)C(N)=O [Alloc--pAph--Glu--Arg--Cha--NH2, Alloc-pAph-Glu-Arg-Cha-NH2] (Alloc-[Phe(4-amidino)]ER[Cha]-NH2)	7.34
C=CCOC(=O)N[C@@H](Cc1ccc(C(=N)N)cc1)C(=O)N[C@@H](CCC(=O)O)C(=O)N[C@@H](CCCNC(=N)N)C(=O)N[C@H](C(N)=O)C1CCCCC1 [Alloc--pAph--Glu--Arg--Chg--NH2, Alloc-pAph-Glu-Arg-Chg-NH2] (Alloc-[Phe(4-amidino)]ER[Chg]-NH2)	6.62
C=CCOC(=O)N[C@@H](Cc1ccc(C(=N)N)cc1)C(=O)N[C@@H](CCC(=O)O)C(=O)N[C@@H](CC(N)=O)C(=O)NCc1cccc2ccccc12 [Alloc--pAph--Glu--Asn-1-naphthylmethylamide]	7.51
C=CCOC(=O)N[C@@H](Cc1ccc(C(=N)N)cc1)C(=O)N[C@@H](CCC(=O)O)C(=O)N[C@@H](CC(N)=O)C(=O)NCC(c1ccccc1)c1ccccc1 [Alloc--pAph--Glu--Asn-2,2-diphenylethylamide]	7.31
C=CCOC(=O)N[C@@H](Cc1ccc(C(=N)N)cc1)C(=O)N[C@@H](CCC(=O)O)C(=O)N[C@@H](CC(N)=O)C(=O)NCc1ccc(F)cc1F [Alloc--pAph--Glu--Asn-2,4-difluorobenzylamide]	7.29
C=CCOC(=O)N[C@@H](Cc1ccc(C(=N)N)cc1)C(=O)N[C@@H](CCC(=O)O)C(=O)N[C@@H](CC(N)=O)C(=O)NCCc1cccc2ccccc12 [Alloc--pAph--Glu--Asn-2-(1-naphthyl)ethylamide]	7.66
C=CCOC(=O)N[C@@H](Cc1ccc(C(=N)N)cc1)C(=O)N[C@@H](CCC(=O)O)C(=O)N[C@@H](CC(N)=O)C(=O)NCCc1ccc2ccccc2c1 [Alloc--pAph--Glu--Asn-2-(2-naphthyl)ethylamide]	7.28
C=CCOC(=O)N[C@@H](Cc1ccc(C(=N)N)cc1)C(=O)N[C@@H](CCC(=O)O)C(=O)N[C@@H](CC(N)=O)C(=O)NCCc1ccccn1 [Alloc--pAph--Glu--Asn-2-(2-pyridyl)ethylamide]	7.15
C=CCOC(=O)N[C@@H](Cc1ccc(C(=N)N)cc1)C(=O)N[C@@H](CCC(=O)O)C(=O)N[C@@H](CC(N)=O)C(=O)NCc1ccc2ccccc2c1 [Alloc--pAph--Glu--Asn-2-naphthylmethylamide]	7.57
C=CCOC(=O)N[C@@H](Cc1ccc(C(=N)N)cc1)C(=O)N[C@@H](CCC(=O)O)C(=O)N[C@@H](CC(N)=O)C(=O)NCC1CCCO1 (stereo partly drawn) [Alloc--pAph--Glu--Asn-2-tetrahydrofuranylmethylamide]	6.77
C=CCOC(=O)N[C@@H](Cc1ccc(C(=N)N)cc1)C(=O)N[C@@H](CCC(=O)O)C(=O)N[C@@H](CC(N)=O)C(=O)NCc1ccc(Cl)c(Cl)c1 [Alloc--pAph--Glu--Asn-3,4-dichlorobenzylamide]	7.59
C=CCOC(=O)N[C@@H](Cc1ccc(C(=N)N)cc1)C(=O)N[C@@H](CCC(=O)O)C(=O)N[C@@H](CC(N)=O)C(=O)NCc1ccc2c(c1)OCO2 [Alloc--pAph--Glu--Asn-3,4-methylenedioxybenzylamide]	6.92
C=CCOC(=O)N[C@@H](Cc1ccc(C(=N)N)cc1)C(=O)N[C@@H](CCC(=O)O)C(=O)N[C@@H](CC(N)=O)C(=O)NCc1cc(C(F)(F)F)cc(C(F)(F)F)c1 [Alloc--pAph--Glu--Asn-3,5-bistrifluoromethylbenzylamide]	7.48
C=CCOC(=O)N[C@@H](Cc1ccc(C(=N)N)cc1)C(=O)N[C@@H](CCC(=O)O)C(=O)N[C@@H](CC(N)=O)C(=O)NCc1ccc(OC)cc1 [Alloc--pAph--Glu--Asn-4-methoxybenzylamide]	7.08
C=CCOC(=O)N[C@@H](Cc1ccc(C(=N)N)cc1)C(=O)N[C@@H](CCC(=O)O)C(=O)N[C@@H](CC(N)=O)C(=O)N[C@@H](CC1CCCCC1)C(N)=O [Alloc--pAph--Glu--Asn--Cha--NH2, Alloc-pAph-Glu-Asn-Cha-NH2] (Alloc-[Phe(4-amidino)]EN[Cha]-NH2)	7.68
C=CCOC(=O)N[C@@H](Cc1ccc(C(=N)N)cc1)C(=O)N[C@@H](CCC(=O)O)C(=O)N[C@@H](CC(N)=O)C(=O)NCC1CCCCC1 [Alloc--pAph--Glu--Asn--NH--CH2 --Chx, Alloc-pAph-Glu-Asn-NH--CH2 -Chx]	6.82
C=CCOC(=O)N[C@@H](Cc1ccc(C(=N)N)cc1)C(=O)N[C@@H](CCC(=O)O)C(=O)N[C@@H](CC(N)=O)C(=O)N(C)Cc1cccc2ccccc12 [Alloc--pAph--Glu--Asn-N-methyl-N-(1-naphthylmethyl)amide]	5.77

Continued, values first:

pKi	Structure (SMILES)
7.20	C=CCOC(=O)N[C@@H](Cc1ccc(C(=N)N)cc1)C(=O)N[C@@H](CCC(=O)O)C(=O)N[C@@H](CCC#N)C(=O)N[C@@H](CC1CCCCC1)C(N)=O [Alloc--pAph--Glu-2-Abu(4-CN)--Cha--NH2] (Alloc-[Phe(4-amidino)]E[Abu(4-CN)][Cha]-NH2)
6.92	C=CCOC(=O)N[C@@H](Cc1ccc(C(=N)N)cc1)C(=O)N[C@@H](CCC(=O)O)C(=O)N[C@@H](CC#N)C(=O)N[C@@H](CC1CCCCC1)C(N)=O [Alloc--pAph--Glu--Ala(3-CN)--Cha--NH2] (Alloc-[Phe(4-amidino)]E[Ala(CN)][Cha]-NH2)
7.35	C=CCOC(=O)N[C@@H](Cc1ccc(C(=N)N)cc1)C(=O)N[C@@H](CCC(=O)O)C(=O)N[C@@H](CC(N)=O)C(=O)NC1CCCc2ccccc21 (stereo partly drawn) [Alloc--pAph--Glu--Asn-1,2,3,4-tetrahydro-1-naphthylamide]
7.68	C=CCOC(=O)N[C@@H](Cc1ccc(C(=N)N)cc1)C(=O)N[C@@H](CCC(=O)O)C(=O)N[C@@H](CC(N)=O)C(=O)NC(C)c1cccc2ccccc12 (stereo partly drawn) [Alloc--pAph--Glu--Asn-1-(1-naphthyl)ethylamide]
7.64	C=CCOC(=O)N[C@@H](Cc1ccc(C(=N)N)cc1)C(=O)N[C@@H](CCC(=O)O)C(=O)N[C@@H](CC(N)=O)C(=O)NCCc1cccc(Cl)c1 [Alloc--pAph--Glu--Asn-2-(3-chlorophenyl)ethylamide]
6.39	C=CCOC(=O)N[C@@H](Cc1ccc(C(=N)N)cc1)C(=O)N[C@@H](CCC(=O)O)C(=O)N[C@@H](CC(N)=O)C(=O)NCCN1CCOCC1 [Alloc--pAph--Glu--Asn-2-(4-morpholinyl)ethylamide]
6.46	C=CCOC(=O)N[C@@H](Cc1ccc(C(=N)N)cc1)C(=O)N[C@@H](CCC(=O)O)C(=O)N[C@@H](CC(N)=O)C(=O)NCCc1ccc(S(N)(=O)=O)cc1 [Alloc--pAph--Glu--Asn-2-(4-sulfamoylphenyl)ethylamide]
7.62	C=CCOC(=O)N[C@@H](Cc1ccc(C(=N)N)cc1)C(=O)N[C@@H](CCC(=O)O)C(=O)N[C@@H](CC(N)=O)C(=O)NCCC(c1ccccc1)c1ccccc1 [Alloc--pAph--Glu--Asn-3,3-diphenylpropylamide]
6.96	C=CCOC(=O)N[C@@H](Cc1ccc(C(=N)N)cc1)C(=O)N[C@@H](CCC(=O)O)C(=O)N[C@@H](CC(N)=O)C(=O)NCCC(C)C [Alloc--pAph--Glu--Asn-3-methylbutylamide]
7.59	C=CCOC(=O)N[C@@H](Cc1ccc(C(=N)N)cc1)C(=O)N[C@@H](CCC(=O)O)C(=O)N[C@@H](CC(N)=O)C(=O)NCCCc1ccccc1 [Alloc--pAph--Glu--Asn-3-phenylpropylamide]
6.96	C=CCOC(=O)N[C@@H](Cc1ccc(C(=N)N)cc1)C(=O)N[C@@H](CCC(=O)O)C(=O)N[C@@H](CC(N)=O)C(=O)NCc1ccc(N(C)C)cc1 [Alloc--pAph--Glu--Asn-4-dimethylaminobenzylamide]
7.64	C=CCOC(=O)N[C@@H](Cc1ccc(C(=N)N)cc1)C(=O)N[C@@H](CCC(=O)O)C(=O)N[C@@H](CC(N)=O)C(=O)NC1c2ccccc2-c2ccccc21 [Alloc--pAph--Glu--Asn-9-fluorenylamide]
6.39	C=CCOC(=O)N[C@@H](Cc1ccc(C(=N)N)cc1)C(=O)N[C@@H](CCC(=O)O)C(=O)N[C@@H](CC(N)=O)C(=O)N(Cc1ccccc1)Cc1ccccc1 [Alloc--pAph--Glu--Asn-N,N-dibenzylamide]
6.92	C=CCOC(=O)N[C@@H](Cc1ccc(C(=N)N)cc1)C(=O)N[C@@H](CCC(=O)O)C(=O)N[C@@H](CSCNC(C)=O)C(=O)N[C@@H](CC1CCCCC1)C(N)=O [Alloc--pAph--Glu--Cys(Acm)--Cha--NH2] (Alloc-[Phe(4-amidino)]EC(Acm)[Cha]-NH2)
7.59	C=CCOC(=O)N[C@@H](Cc1ccc(C(=N)N)cc1)C(=O)N[C@@H](CCC(=O)O)C(=O)N[C@@H](CSCc1ccccc1)C(=O)N[C@@H](CC1CCCCC1)C(N)=O [Alloc--pAph--Glu--Cys(Bzl)--Cha--NH2] (Alloc-[Phe(4-amidino)]EC(Bn)[Cha]-NH2)
